Laboratory results published in the supplement of paper PMC10307832.

What was measured:
Test in all cases: relative viability (nuclei count vs DMSO), 5 days (fraction); higher = more cells survive
[1] = compound: CC(C)CCN1c2nc(Nc3cc(F)c(O)c(F)c3)ncc2N(C)C(=O)C1C [BI-D1870] + CC(C)C[C@H](NC(=O)[C@H](Cc1ccccc1)NC(=O)c1cnccn1)B(O)O [Bortezomib] (partner 0.002 µM)
How it was run: (§1)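 The day after seeding in 1536-well plates, lung cancer cell lines were treated by pin tool with a single drug, or with a fixed anchor-drug dose together with five library-drug doses (not always all listed) in √10 steps. After 5 days, a combined fix-and-stain solution (final 0.05% Triton X-100, 1% formaldehyde, 1 ug/ml Hoechst) was added. Nuclei counted on 4× images gave relative viability as treated counts over vehicle counts, reported as the median of duplicate plates.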

[2] = compound: CC(C)CCN1c2nc(Nc3cc(F)c(O)c(F)c3)ncc2N(C)C(=O)C1C [BI-D1870] + C[C@]1(O)C[C@@H](c2nc(-c3ccc4ccc(-c5ccccc5)nc4c3)c3c(N)nccn32)C1 [Linsitinib] (partner 1 µM)
How it was run: as §1

[3] = compound: O=c1ncccn1[C@@H]1O[C@H](CO)[C@@H](O)[C@H]1O [Zebularine] + CC(=O)c1c(C)c2cnc(Nc3ccc(N4CCNCC4)cn3)nc2n(C2CCCC2)c1=O [Palbociclib] (partner 0.5 µM)
How it was run: as §1

[4] = compound: O=c1ncccn1[C@@H]1O[C@H](CO)[C@@H](O)[C@H]1O [Zebularine] + Cc1nc(Nc2ncc(C(=O)Nc3c(C)cccc3Cl)s2)cc(N2CCN(CCO)CC2)n1 [Dasatinib] (partner 0.075 µM)
How it was run: as §1

| Cell Line | relative viability ([1]; first compound 0.04 µM) | relative viability ([1]; first compound 0.1265 µM) | relative viability ([1]; first compound 0.4 µM) | relative viability ([1]; first compound 1.265 µM) | relative viability ([1]; first compound 4 µM) | relative viability ([2]; first compound 0.04 µM) | relative viability ([2]; first compound 0.1265 µM) | relative viability ([2]; first compound 0.4 µM) | relative viability ([2]; first compound 1.265 µM) | relative viability ([2]; first compound 4 µM) | relative viability ([3]; first compound 1 µM) | relative viability ([3]; first compound 3.162 µM) | relative viability ([3]; first compound 10 µM) | relative viability ([3]; first compound 31.62 µM) | relative viability ([3]; first compound 100 µM) | relative viability ([4]; first compound 1 µM) | relative viability ([4]; first compound 3.162 µM) | relative viability ([4]; first compound 10 µM) | relative viability ([4]; first compound 31.62 µM) | relative viability ([4]; first compound 100 µM) |
| --- | --- | --- | --- | --- | --- | --- | --- | --- | --- | --- | --- | --- | --- | --- | --- | --- | --- | --- | --- | --- |
| NCI-H1651 | 1.06 | 0.943 | 0.885 | 1.01 | 0.903 | 1.09 | 0.907 | 0.962 | 0.922 | 0.752 | 0.525 | 0.491 | 0.507 | 0.557 | 0.352 | 0.399 | 0.359 | 0.343 | 0.53 | 0.247 |
| NCI-H1666 | 0.871 | 0.598 | 0.985 | 0.879 | 0.754 | 0.921 | 0.814 | 0.865 | 0.843 | 0.872 | 0.629 | 0.642 | 0.58 | 0.689 | 0.654 | 0.828 | 0.817 | 0.714 | 0.993 | 0.689 |
| NCI-H1734 | 1.21 | 0.904 | 0.874 | 0.893 | 0.602 | 0.967 | 0.816 | 0.875 | 0.935 | 0.788 | 0.408 | 0.334 | 0.322 | 0.3 | 0.239 | 0.546 | 0.486 | 0.333 | 0.297 | 0.281 |
| NCI-H1755 | 1.07 | 0.921 | 0.949 | 1.09 | 0.937 | 0.982 | 0.975 | 1.04 | 0.967 | 0.941 | 0.496 | 0.455 | 0.45 | 0.474 | 0.415 | 0.494 | 0.452 | 0.342 | 0.49 | 0.435 |
| NCI-H1792 | 1.03 | 0.915 | 0.942 | 1.13 | 0.841 | 0.622 | 0.607 | 0.47 | 0.619 | 0.387 | 0.639 | 0.732 | 0.282 | 0.401 | 0.423 | 0.71 | 0.713 | 0.262 | 0.421 | 0.414 |
| NCI-H1915 | 1.04 | 0.951 | 0.905 | 1.03 | 0.879 | 1.1 | 1.12 | 1.1 | 1.12 | 1.05 | 0.523 | 0.525 | 0.485 | 0.541 | 0.352 | 0.362 | 0.328 | – | 0.374 | 0.287 |
| NCI-H1975 | 0.487 | 0.44 | 0.386 | 0.339 | 0.175 | 1.01 | 0.849 | 0.874 | 0.94 | 0.636 | 0.818 | 0.596 | 0.291 | 0.317 | 0.259 | 0.328 | 0.408 | 0.253 | 0.247 | 0.173 |
| NCI-H1993 | 1.22 | 0.961 | 1.12 | 1.31 | 0.981 | 0.812 | 0.739 | 0.726 | 0.703 | 0.797 | 0.726 | 0.704 | 0.615 | 0.633 | 0.695 | 0.658 | 0.609 | 0.48 | 0.498 | 0.496 |
| NCI-H2009 | 1.03 | 0.934 | 1.01 | 0.866 | 0.246 | 1.29 | 1.13 | 1.23 | 1.13 | 0.881 | 0.249 | 0.229 | 0.234 | 0.198 | 0.197 | 0.371 | 0.316 | 0.263 | 0.309 | 0.231 |
| NCI-H2023 | 1.2 | 0.901 | 0.957 | 0.95 | 0.647 | 0.72 | 0.507 | 0.569 | 0.605 | 0.543 | 0.361 | 0.375 | 0.235 | 0.322 | 0.245 | 0.636 | 0.572 | 0.423 | 0.392 | 0.213 |
| NCI-H2085 | 1.17 | 0.994 | 0.947 | 0.968 | 0.762 | 0.93 | 0.81 | 0.896 | 0.885 | 0.68 | 0.451 | 0.47 | 0.509 | 0.552 | 0.394 | 0.209 | 0.226 | 0.243 | 0.222 | 0.246 |
| NCI-H2087 | 0.829 | 0.845 | 0.927 | 1.13 | 0.839 | 1.09 | 1.02 | 1.17 | 1.01 | 0.699 | 0.275 | 0.207 | 0.243 | 0.218 | 0.185 | 1.14 | 0.786 | 0.426 | 0.972 | 0.631 |
| NCI-H2126 | 1.12 | 1.1 | 1.06 | 1.14 | 1.05 | 0.724 | 0.712 | 0.694 | 0.73 | 0.677 | 0.363 | 0.342 | 0.386 | 0.377 | 0.318 | 0.813 | 0.538 | 0.612 | 0.569 | 0.488 |
| NCI-H2228 | 1.36 | 0.999 | 1.37 | 1.05 | 0.401 | 0.78 | 0.568 | 0.953 | 0.529 | 0.388 | 0.861 | 0.637 | – | 0.552 | 0.216 | 0.606 | 0.518 | 0.322 | 0.448 | 0.222 |
| NCI-H2347 | 1.04 | 0.856 | 1.14 | 1.24 | 0.915 | 1.07 | 0.965 | 0.962 | 1.03 | 0.899 | 0.471 | 0.411 | 0.414 | 0.471 | 0.338 | 0.309 | 0.322 | 0.302 | 0.227 | 0.254 |
| NCI-H2405 | 1.07 | 0.89 | 0.959 | 1.02 | 1.02 | 1.07 | 0.839 | 0.901 | 1.06 | 0.909 | 0.524 | 0.533 | 0.478 | 0.509 | 0.435 | 0.229 | 0.213 | 0.207 | 0.188 | 0.211 |
